# Test system: 786-0 complex spheroid viability
# Assay: Anticancer human tumor 786-0 cell line growth inhibition;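 further: spheroids exposed to agents for seven days before readout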
# Conditions: for IC50: curve of first compound; for viability, T/C: stronger effect = lower value
# Text: Multicellular complex tumor spheroid response to LSD1 Inhibitor Iadademstat in combination with a variety of drugs and investigational agents in selected tumor cell lines
# The current study was undertaken to assess response to LSD1 inhibitors in combination with standard-of-care drugs and investigational agents in solid tumor complex spheroid models as well as in the K-562 leukemia. Complex spheroids include a stromal component modeled by human endothelial cells (HUVEC) and fibroblasts modeled by human mesenchymal stem cells (MSCs). The concentration ranges selected for each drug and investigational agent were based upon clinically achievable concentrations if the clinical Cmax of the agent was known.
# Compounds. The drugs and investigational agents used in this study are listed on Table 1. All of the agents used, including staurosporine (NSC755774) and gemcitabine (NSC613327), were obtained from the Developmental Therapeutics Program, NCI. FDA-approved anticancer drugs are available from the NCI at http://dtp.nci.nih.gov/branches/dscb/oncology_drugset_explanation.html. Drugs and investigational agents were >95% pure by proton nuclear magnetic resonance (NMR) and liquid chromatography/mass spectrometry (LC/MS). Stock solutions were prepared at 400x in DMSO, stored at -70 degrees C, and diluted in fresh medium prior to their use. The final concentration of DMSO in cell culture wells never exceeded 0.25% (v/v). The FDA-approved anticancer drug set is available from the Developmental Therapeutics Program at https://dtp.cancer.gov/organization/dscb/obtaining/available_plates.htm. All drugs and investigational agents were tested over a range starting from a high concentration at or near the clinical Cmax and decreasing in half-log increments. If the clinical Cmax for an agent had not been determined, the highest concentration tested was 10 microM.
# Cell Lines. The patient-derived cancer cell (PDC) lines: 292921-168-R-J2-PDC, K24384-001-R-PDC, and 521955-158-R2-J5-PDC pancreatic carcinomas, 556581-035-R-J1 ovarian carcinoma, 324938-238-R-J1-PDC, 855422-203-R-J1-PDC and 883617-216-R-J1-PDC urothelial bladder carcinomas, 743489-274-T-PDC renal cell carcinoma, 138582-R-J1 Merkel cell tumor, K60290-347-R-J1 and K57222-313-R-J1-PDC glioblastomas, 653999-131-R-J2-PDC, LG0703-F948-PDC, and 349418-098-R-PDC non-small cell lung carcinomas, 885512-296-R-J2-PDC, 171881-019-R-J1-PDC breast carcinomas and 186277-243-T-J2-PDC and 233499-124-R-J2-PDC colon carcinomas were obtained from the NCI Patient-Derived Models Repository (PDMR, https://pdmr.cancer.gov). The established cell lines NCI/ADR-RES (RRID:CVCL_14520 and OVCAR-5 (RRID:CVCL_1628) ovarian carcinomas, 786-O (RRID:CVCL_1051) and A498 (RRID:CVCL_A498) renal cell carcinoma, NCI-H211 (ATCC, cat. CRL-5824; RRID:CVCL_1529), NCI-H196 (ATCC, cat. CRL-5823, RRID:CVCL_1509), SW 1271 (ATCC, cat. CRL-2177, RRID:CVCL_1716) and NCI-H1876 (ATCC, cat. CRL-5902, RRID:CVCL_1503) small cell lung carcinomas, MDA-MB-231 (RRID:CVCL_0062) and MDA-MB-468 (RRID:CVCL_0419)breast carcinomas (10-12). Pooled donor human umbilical vein endothelial cells (HUVEC, Lonza, cat. CC-2519) and human mesenchymal stem cells (hMSC, Lonza, cat. PT-2501) were purchased from Lonza (Walkersville, MD).
# Cell Culture. All cells were maintained in an incubator at 37 degrees C and 5% CO2 with 95% humidity. The PDC lines were cultured according to standard operating procedures established by the NCI PDMR (https://pdmr.cancer.gov). Briefly all PDCs were thawed and cultured in Matrigel-coated flasks prepared with a working solution of 1X Ham's F-12 nutrient mix, without supplementation (Invitrogen, Waltham, MA, cat. 11765054), 100 U/mL penicillin-streptomycin (Invitrogen, cat. 15140122), and 2.5% Matrigel (Corning Inc., Corning, NY, cat. 354248) for the first three passages. […]
smiles,measurement,setting,value
Nc1ncn(C2CC(O)C(CO)S2)c(=O)n1 (stereo not given) + NC1CC1c1ccc(-c2cccc(O)c2)cc1,IC50,second compound 0.1 µM,216 nM
same,IC50,second compound 0.316 µM,> 300 nM
same,IC50,second compound 1 µM,255 nM
same,IC50,second compound 3.16 µM,251 nM
same,IC50,second compound 10 µM,> 300 nM
same,"viability, T/C","second compound 0.1 µM, first compound 0.000949 µM",117%
same,"viability, T/C","second compound 0.1 µM, first compound 0.003 µM",114%
same,"viability, T/C","second compound 0.1 µM, first compound 0.00949 µM",113%
same,"viability, T/C","second compound 0.1 µM, first compound 0.03 µM",99%
same,"viability, T/C","second compound 0.1 µM, first compound 0.0949 µM",81.5%
same,"viability, T/C","second compound 0.1 µM, first compound 0.3 µM",37.6%
same,"viability, T/C","second compound 0.316 µM, first compound 0.000949 µM",116%
same,"viability, T/C","second compound 0.316 µM, first compound 0.003 µM",121%
same,"viability, T/C","second compound 0.316 µM, first compound 0.00949 µM",112%
same,"viability, T/C","second compound 0.316 µM, first compound 0.03 µM",106%
same,"viability, T/C","second compound 0.316 µM, first compound 0.0949 µM",86.8%
same,"viability, T/C","second compound 0.316 µM, first compound 0.3 µM",51%
same,"viability, T/C","second compound 1 µM, first compound 0.000949 µM",121%
same,"viability, T/C","second compound 1 µM, first compound 0.003 µM",110%
same,"viability, T/C","second compound 1 µM, first compound 0.00949 µM",110%
same,"viability, T/C","second compound 1 µM, first compound 0.03 µM",100%
same,"viability, T/C","second compound 1 µM, first compound 0.0949 µM",83.2%
same,"viability, T/C","second compound 1 µM, first compound 0.3 µM",44%
same,"viability, T/C","second compound 3.16 µM, first compound 0.000949 µM",111%
same,"viability, T/C","second compound 3.16 µM, first compound 0.003 µM",109%
same,"viability, T/C","second compound 3.16 µM, first compound 0.00949 µM",102%
same,"viability, T/C","second compound 3.16 µM, first compound 0.03 µM",102%
same,"viability, T/C","second compound 3.16 µM, first compound 0.0949 µM",79.3%
same,"viability, T/C","second compound 3.16 µM, first compound 0.3 µM",44.2%
same,"viability, T/C","second compound 10 µM, first compound 0.000949 µM",93.3%
same,"viability, T/C","second compound 10 µM, first compound 0.003 µM",100%
same,"viability, T/C","second compound 10 µM, first compound 0.00949 µM",95.1%
same,"viability, T/C","second compound 10 µM, first compound 0.03 µM",95.2%
same,"viability, T/C","second compound 10 µM, first compound 0.0949 µM",81.3%
same,"viability, T/C","second compound 10 µM, first compound 0.3 µM",53.9%
CC1COCCN1c1cc(C2(S(C)(=N)=O)CC2)nc(-c2ccnc3[nH]ccc23)n1 (stereo not given) + NC1CCC(NC2CC2c2ccccc2)CC1,IC50,second compound 0.1 µM,886 nM
same,IC50,second compound 0.316 µM,792 nM
same,IC50,second compound 1 µM,795 nM
same,IC50,second compound 3.16 µM,604 nM
same,IC50,second compound 10 µM,294 nM
same,"viability, T/C","second compound 0.1 µM, first compound 0.0316 µM",118%
same,"viability, T/C","second compound 0.1 µM, first compound 0.1 µM",114%
same,"viability, T/C","second compound 0.1 µM, first compound 0.316 µM",104%
same,"viability, T/C","second compound 0.1 µM, first compound 1 µM",43%
same,"viability, T/C","second compound 0.1 µM, first compound 3.16 µM",15.3%
same,"viability, T/C","second compound 0.1 µM, first compound 10 µM",6.76%
same,"viability, T/C","second compound 0.316 µM, first compound 0.0316 µM",125%
same,"viability, T/C","second compound 0.316 µM, first compound 0.1 µM",116%
same,"viability, T/C","second compound 0.316 µM, first compound 0.316 µM",93.4%
same,"viability, T/C","second compound 0.316 µM, first compound 1 µM",38.1%
same,"viability, T/C","second compound 0.316 µM, first compound 3.16 µM",14.7%
same,"viability, T/C","second compound 0.316 µM, first compound 10 µM",6.62%
same,"viability, T/C","second compound 1 µM, first compound 0.0316 µM",112%
same,"viability, T/C","second compound 1 µM, first compound 0.1 µM",116%
same,"viability, T/C","second compound 1 µM, first compound 0.316 µM",89.2%
same,"viability, T/C","second compound 1 µM, first compound 1 µM",40%
same,"viability, T/C","second compound 1 µM, first compound 3.16 µM",13%
same,"viability, T/C","second compound 1 µM, first compound 10 µM",4.93%
same,"viability, T/C","second compound 3.16 µM, first compound 0.0316 µM",109%
same,"viability, T/C","second compound 3.16 µM, first compound 0.1 µM",103%
same,"viability, T/C","second compound 3.16 µM, first compound 0.316 µM",72.8%
same,"viability, T/C","second compound 3.16 µM, first compound 1 µM",32.3%
same,"viability, T/C","second compound 3.16 µM, first compound 3.16 µM",9.43%
same,"viability, T/C","second compound 3.16 µM, first compound 10 µM",5.16%
same,"viability, T/C","second compound 10 µM, first compound 0.0316 µM",94.1%
same,"viability, T/C","second compound 10 µM, first compound 0.1 µM",77.5%
same,"viability, T/C","second compound 10 µM, first compound 0.316 µM",48.3%
same,"viability, T/C","second compound 10 µM, first compound 1 µM",20.8%
same,"viability, T/C","second compound 10 µM, first compound 3.16 µM",5.55%
same,"viability, T/C","second compound 10 µM, first compound 10 µM",2.91%

# From PubChem BioAssay AID1918944 (Molecular Pharmacology Branch, DTP, NCI, 2023)
